Source: US20260262643A1, “HERBICIDAL BENZOXAZINES” (FMC CORPORATION, priority 2022, published 2026)

How the values were obtained:
soybean [1] = experiment: Test C preemergence; type: in vivo, Glycine max
Method in brief: (§1)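 Test material, in non-phytotoxic solvent with surfactant, was sprayed on the soil directly after seeding (preemergence) or on young plants of 2–10 cm with one to two leaves (postemergence). Greenhouse, 10 days; 0–100 visual control scale.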

blackgrass [2] = experiment: Test C preemergence; type: in vivo, Alopecurus myosuroides
Method in brief: as §1

ragweed [3] = experiment: Test C postemergence; type: in vivo, Ambrosia artemisiifolia; conditions: 10 days, 0 to 100 scale (0 no effect, 100 complete control)
Method in brief: as §1

ryegrass, Italian [4] = experiment: Test C postemergence; type: in vivo, Lolium multiflorum; conditions: 10 days, 0 to 100 scale (0 no effect, 100 complete control)
Method in brief: as §1

foxtail, giant [5] = experiment: Test C postemergence; type: in vivo, Setaria faberi; conditions: 10 days, 0 to 100 scale (0 no effect, 100 complete control)
Excerpt: (§2) Seeds of plant species selected from barnyardgrass (Echinochloa crusgalli), blackgrass (Alopecurus myosuroides), corn (Zea mays), foxtail, giant (giant foxtail, Setaria faberi), green foxtail (Setaria viridis), goosegrass (Eleusine indica), kochia (Bassia scoparia), oat, wild (wild oat, Avena fatua), pigweed, palmer (palmer amaranth, palmer pigweed, Amaranthus palmeri), Pigweed, Redroot (redroot pigweed, Amaranthus retroflexus), ragweed (common ragweed, Ambrosia artemisiifolia), ryegrass, Italian ([…] ryegrass, Lolium multiflorum), soybean (Glycine max), and wheat (Triticum aestivum) were planted into a blend of loam soil and sand and treated preemergence with a directed soil spray using test chemicals formulated in a non-phytotoxic solvent mixture which included a surfactant. At the same time, plants selected from these crops and weed species and also galium (catchweed bedstraw, Galium aparine) and horseweed (Erigeron canadensis) were planted in pots containing the same blend of loam soil and sand and treated with postemergence applications of test chemicals formulated in the same manner. Plants ranged in height from 2 to 10 cm and were in the one- to two-leaf stage for the postemergence treatment. Treated plants and untreated controls were maintained in a greenhouse for 10 days, after which time all treated plants were compared to untreated controls and visually evaluated for injury. Plant response ratings, summarized in Table C, are based on a 0 to 100 scale where 0 is no effect and 100 is complete control. A dash (-) response means no test result.

kochia [6] = experiment: Test C preemergence; type: in vivo, Bassia scoparia
Method in brief: as §1

pigweed, palmer [7] = experiment: Test C postemergence; type: in vivo, Amaranthus palmeri; conditions: 10 days, 0 to 100 scale (0 no effect, 100 complete control)
Method in brief: as §1

horseweed = experiment: Test C postemergence; type: in vivo, Erigeron canadensis; conditions: 10 days, 0 to 100 scale (0 no effect, 100 complete control)
Method in brief: as §1

kochia [8] = experiment: Test C postemergence; type: in vivo, Bassia scoparia; conditions: 10 days, 0 to 100 scale (0 no effect, 100 complete control)
Method in brief: as §1

ducksalad = experiment: Test D flooded paddy test; type: in vivo, Heteranthera limosa; conditions: 250 g ai/ha, applied to paddy water, visual rating after 13 to 14 days, scale 0 to 100 (0 no effect, 100 complete control)
Method in brief: (§3)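 Plants grown to the 2-leaf stage; pots flooded to 3 cm above soil at treatment and held at that depth throughout. Test compounds applied directly to the paddy water. After 13 to 14 days in a greenhouse, response was rated visually versus controls on a 0 (no effect) to 100 (complete control) scale.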

wheat [9] = experiment: Test C postemergence; type: in vivo, Triticum aestivum; conditions: 10 days, 0 to 100 scale (0 no effect, 100 complete control)
Method in brief: as §1

pigweed, palmer [10] = experiment: Test C preemergence; type: in vivo, Amaranthus palmeri
Method in brief: as §1

rice = experiment: Test D flooded paddy test; type: in vivo, Oryza sativa; conditions: 250 g ai/ha, applied to paddy water, visual rating after 13 to 14 days, scale 0 to 100 (0 no effect, 100 complete control)
Method in brief: as §3

ryegrass, Italian [11] = experiment: Test C preemergence; type: in vivo, Lolium multiflorum
Method in brief: as §1

oat, wild [12] = experiment: Test C postemergence; type: in vivo, Avena fatua; conditions: 10 days, 0 to 100 scale (0 no effect, 100 complete control)
Method in brief: as §1

soybean [13] = experiment: Test C postemergence; type: in vivo, Glycine max; conditions: 10 days, 0 to 100 scale (0 no effect, 100 complete control)
Method in brief: as §1

oat, wild [14] = experiment: Test C preemergence; type: in vivo, Avena fatua
Method in brief: as §1

galium = experiment: Test C postemergence; type: in vivo, Galium aparine; conditions: 10 days, 0 to 100 scale (0 no effect, 100 complete control)
Method in brief: as §1

barnyardgrass [15] = experiment: Test C preemergence; type: in vivo, Echinochloa crusgalli
Method in brief: as §1

barnyardgrass [16] = experiment: Test D flooded paddy test; type: in vivo, Echinochloa crus-galli; conditions: 250 g ai/ha, applied to paddy water, visual rating after 13 to 14 days, scale 0 to 100 (0 no effect, 100 complete control)
Method in brief: as §3

sedge, umbrella = experiment: Test D flooded paddy test; type: in vivo, Cyperus difformis; conditions: 250 g ai/ha, applied to paddy water, visual rating after 13 to 14 days, scale 0 to 100 (0 no effect, 100 complete control)
Method in brief: as §3

wheat [17] = experiment: Test C preemergence; type: in vivo, Triticum aestivum
Method in brief: as §1

barnyardgrass [18] = experiment: Test C postemergence; type: in vivo, Echinochloa crusgalli; conditions: 10 days, 0 to 100 scale (0 no effect, 100 complete control)
Method in brief: as §1

corn [19] = experiment: Test C preemergence; type: in vivo, Zea mays
Method in brief: as §1

foxtail, giant [20] = experiment: Test C preemergence; type: in vivo, Setaria faberi
Excerpt: as §2

corn [21] = experiment: Test C postemergence; type: in vivo, Zea mays; conditions: 10 days, 0 to 100 scale (0 no effect, 100 complete control)
Method in brief: as §1

ragweed [22] = experiment: Test C preemergence; type: in vivo, Ambrosia artemisiifolia; conditions: Preemergence, 125 g ai/ha; 0 to 100 scale, 0 no effect, 100 complete control
Method in brief: as §1

blackgrass [23] = experiment: Test C postemergence; type: in vivo, Alopecurus myosuroides; conditions: 10 days, 0 to 100 scale (0 no effect, 100 complete control)
Method in brief: as §1

[24] = 500 g ai/ha, preemergence, 0 to 100 scale (0 no effect, 100 complete control)
[25] = Preemergence, 125 g ai/ha, 0 to 100 scale, 0 no effect, 100 complete control

CC(C)(C)c1ncn(-c2cc(C(=O)N3CC(C(F)(F)F)Oc4c(Cl)cccc43)ccn2)n1 (stereo not drawn) [Compound 322]
0: Plant response rating, Soybean (soybean [1]; [25]) | Plant response rating, Horseweed (horseweed; 500 g ai/ha, postemergence) | Plant response rating, Horseweed (horseweed; Postemergence, 125 g ai/ha) | Plant response rating, Ducksalad (Flood) (ducksalad) | Plant response rating, Rice (Flood) (rice) | Plant response rating, Oat, Wild (oat, wild [12]; Postemergence, 125 g ai/ha) | Plant response rating, Oat, Wild (oat, wild [14]; [25]) | Plant response rating, Barnyardgrass (Flood) (barnyardgrass [16]) | Plant response rating, Sedge, Umbrella (Flood) (sedge, umbrella) | Plant response rating, Wheat (wheat [17]; [25]) | Plant response rating, Ragweed (ragweed [22])
30: Plant response rating, Oat, Wild (oat, wild [12]; 500 g ai/ha, postemergence) | Oat, Wild plant response rating (oat, wild [14]; [24]) | Corn plant response rating (corn [19]; [24]) | Plant response rating, Corn (corn [19]; [25])
10: Plant response rating, Corn (corn [21]; 500 g ai/ha, postemergence) | Plant response rating, Corn (corn [21]; Postemergence, 125 g ai/ha) | Plant response rating, Blackgrass (blackgrass [23]; Postemergence, 125 g ai/ha)
100: Plant response rating, Soybean (soybean [13]; 500 g ai/ha, postemergence) | Foxtail, Giant plant response rating (foxtail, giant [20]; [24])
70: Soybean plant response rating (soybean [1]; [24]) | Plant response rating, Galium (galium; 500 g ai/ha, postemergence) | Plant response rating, Galium (galium; Postemergence, 125 g ai/ha)
20: Plant response rating, Ryegrass, Italian (ryegrass, Italian [4]; Postemergence, 125 g ai/ha) | Plant response rating, Kochia (kochia [6]; [25]) | Plant response rating, Wheat (wheat [9]; 500 g ai/ha, postemergence) | Plant response rating, Wheat (wheat [9]; Postemergence, 125 g ai/ha) | Wheat plant response rating (wheat [17]; [24])
40: Blackgrass plant response rating (blackgrass [2]; [24]) | Plant response rating, Blackgrass (blackgrass [2]; [25]) | Plant response rating, Ragweed (ragweed [3]; Postemergence, 125 g ai/ha) | Plant response rating, Ryegrass, Italian (ryegrass, Italian [4]; 500 g ai/ha, postemergence) | Kochia plant response rating (kochia [6]; [24]) | Plant response rating, Pigweed, Palmer (pigweed, palmer [10]; [25]) | Plant response rating, Barnyardgrass (barnyardgrass [15]; [25]) | Plant response rating, Barnyardgrass (barnyardgrass [18]; Postemergence, 125 g ai/ha) | Plant response rating, Blackgrass (blackgrass [23]; 500 g ai/ha, postemergence)
50: Plant response rating, Ragweed (ragweed [3]; 500 g ai/ha, postemergence) | Plant response rating, Foxtail, Giant (foxtail, giant [5]; Postemergence, 125 g ai/ha) | Plant response rating, Pigweed, Palmer (pigweed, palmer [7]; Postemergence, 125 g ai/ha) | Plant response rating, Barnyardgrass (barnyardgrass [18]; 500 g ai/ha, postemergence)
90: Plant response rating, Foxtail, Giant (foxtail, giant [5]; 500 g ai/ha, postemergence) | Plant response rating, Pigweed, Palmer (pigweed, palmer [7]; 500 g ai/ha, postemergence) | Pigweed, Palmer plant response rating (pigweed, palmer [10]; [24]) | Barnyardgrass plant response rating (barnyardgrass [15]; [24]) | Plant response rating, Foxtail, Giant (foxtail, giant [20]; [25])
60: Plant response rating, Kochia (kochia [8]; Postemergence, 125 g ai/ha) | Plant response rating, Ryegrass, Italian (ryegrass, Italian [11]; [25]) | Plant response rating, Soybean (soybean [13]; Postemergence, 125 g ai/ha)
80: Plant response rating, Kochia (kochia [8]; 500 g ai/ha, postemergence) | Ryegrass, Italian plant response rating (ryegrass, Italian [11]; [24])
